Data reported in patent publication US20170143701A1, “CARBOHYDRATE METABOLISM-AMELIORATING AGENT” (SUNTORY HOLDINGS LIMITED, priority 2014, published 2017).

Tested on: NCI-H716 cells
Experiment: In vitro GLP-1 secretion-accelerating action: amount of active GLP-1 secreted (ELISA)
Assay type: cell-based
Details: 1 hour; for Significant difference (p < 0.05) vs control group, amount of active GLP-1 secreted: 10 mM, Student's t-test; for Amount of active GLP-1 secreted (relative value to control group as 100), average value: cyclic dipeptide 10 mM with 10 μM Sitagliptin phosphate, group with no cyclic dipeptide = 100
Protocol: Among the cyclic dipeptides, 92 highly water-soluble cyclic dipeptides were used in the following experiment. In each well of a Poly-L-Lysine 96-well plate, NCI-H716 cells suspended in 100 μL of a DMEM (with 10% FBS, 2 mM glutamine, and 1% antibiotics added in advance) were seeded at 0.5×10^5 cells/well, and cultured in a CO2 incubator (manufactured by ESPEC CORP.) for 48 hours. After washing with PBS(+), 100 μL of a PBS(+) solution with each cyclic dipeptide at a final concentration of 10 mM and 10 μM of Sitagliptin phosphate added therein was added to the cells. After 1 hour, the resultant solution was recovered, and the amount of active GLP-1 in the solution was measured by using the ELISA kit. In the analysis, the amount of active GLP-1 for a group with no cyclic dipeptide added was defined as 100, and relative values thereto were used.

Structure (SMILES)	Significant difference (p < 0.05) vs control group, amount of active GLP-1 secreted (Table 1, Experiment 1)	Amount of active GLP-1 secreted (relative value to control group as 100), average value (Table 1, Experiment 1)	Significant difference (p < 0.05) vs control group, amount of active GLP-1 secreted (Table 5, Experiment 5)	Amount of active GLP-1 secreted (relative value to control group as 100), average value (Table 5, Experiment 5)	also measured
O=C1N[C@@H](CO)C(=O)N[C@H]1CO [compound 1, Cyclo(Ser-Ser)]	No	124			
O=C1CNC(=O)CN1 [compound 2, Cyclo(Gly-Gly)]			No	151	
C[C@@H]1NC(=O)[C@H](C)NC1=O [compound 3, Cyclo(Ala-Ala)]	No	95			
O=C1NCC(=O)N2CCC[C@@H]12 [compound 4, cyclo-glycyl-proline]			Yes	157	
C[C@H]1NC(=O)[C@@H]2CCCN2C1=O [compound 5, Cyclo(D-Ala-Pro)]	No	113			
O=C1[C@@H]2CCCN2C(=O)[C@@H]2CCCN12 [compound 6, Cyclo(Pro-Pro)]	No	87			
O=C1N[C@@H](Cc2ccccc2)C(=O)N[C@H]1CO [compound 7, Cyclo(Phe-Ser)]	No	106			
CC(C)[C@@H]1NC(=O)[C@@H]2CCCN2C1=O [compound 10, Cyclo(Val-Pro)]	No	95			
CC(C)C[C@@H]1NC(=O)[C@@H]2CCCN2C1=O [compound 19, cyclo-leucyl-proline]	Yes	173			
CC(C)C[C@@H]1NC(=O)CNC1=O [compound 21, Cyclo(Gly-Leu)]			No	131	
C[C@@H]1NC(=O)[C@H](CCC(N)=O)NC1=O [compound 23, Cyclo(Ala-Gln)]			No	99	
NC(=O)CC[C@@H]1NC(=O)CNC1=O [compound 24, Cyclo(Gln-Gly)]			No	89	
O=C1CNC(=O)[C@H](Cc2cnc[nH]2)N1 [compound 27, Cyclo(Gly-His)]			No	82	
O=C(O)C[C@@H]1NC(=O)CNC1=O [compound 32, Cyclo(Asp-Gly)]			Yes	12	
NC(=O)CC[C@@H]1NC(=O)CNC1=O [compound 36, Cyclo(Gln-Gly)]			No	75	
NCCCCC1NC(=O)C(CCCCN)NC1=O (stereo not drawn) [compound 40, Cyclo(Lys-Lys)]	No	164			
O=C(O)CCC1NC(=O)C2CCCN2C1=O (stereo not drawn) [compound 45, Cyclo(Glu-Pro)]	No	145			
O=C1NC(CO)C(=O)N2CCCC12 (stereo not drawn) [compound 46, Cyclo(Ser-Pro)]					Significant difference (p < 0.05) vs control group, amount of active GLP-1 secreted (Table 2, Experiment 2): No; Amount of active GLP-1 secreted (relative value to control group as 100), average value (Table 2, Experiment 2): 139
CC[C@H](C)[C@@H]1NC(=O)[C@@H]2CCCN2C1=O [compound 47, Cyclo(Ile-Pro)]					Significant difference (p < 0.05) vs control group, amount of active GLP-1 secreted (Table 2, Experiment 2): No; Amount of active GLP-1 secreted (relative value to control group as 100), average value (Table 2, Experiment 2): 79
O=C1N[C@@H](Cc2c[nH]c3ccccc23)C(=O)N2CCC[C@@H]12 [compound 57, Cyclo(Trp-Pro)]					Significant difference (p < 0.05) vs control group, amount of active GLP-1 secreted (Table 2, Experiment 2): No; Amount of active GLP-1 secreted (relative value to control group as 100), average value (Table 2, Experiment 2): 81
NCCCC[C@@H]1NC(=O)[C@@H]2CCCN2C1=O [compound 58, Cyclo(Lys-Pro)]					Significant difference (p < 0.05) vs control group, amount of active GLP-1 secreted (Table 2, Experiment 2): No; Amount of active GLP-1 secreted (relative value to control group as 100), average value (Table 2, Experiment 2): 91
